One series has as its system iPSC-CM. As to the kind of experiment: CellTiter-Glo luminescent cell viability assay, iPSC-derived cardiomyocytes. The note with it: 5 μM Dox plus 50 μM compound vs Dox alone. In kind it is cell-based. A general note: In ATP-based viability assays light output follows the ATP content of the culture.
The subject of series [1] is Isolated canine cardiac myocytes. As to the kind of experiment: DOX-induced apoptosis of isolated canine cardiac myocytes. The note with it: 24 hours. In kind it is cell-based.
For series [2], the system named is breast cancer cell lines (BCa). As to the kind of experiment: CellTiter-Glo luminescent cell viability assay, breast cancer cell lines. In kind it is cell-based. The note with it: 5 μM Dox plus 50 μM compound vs Dox alone.
The subject of series [3] is breast cancer cell line Py8119. The series is described as follows: Py8119 cell proliferation by cell number using methylene blue. In kind it is cell-based. The note with it: Ranolazine 0.156 um to 20 um, alone or with 5 uM Dox. As to the method: The breast cancer cell line Py8119 was treated with either increasing doses of Ranolazine (0.156 um to 20 um) or with the addition of doxorubicin. (5 uM Dox). Cell proliferation was established by cell number using methylene blue.

Series [4] has as its system CCR5, CCL3/MIP-la, CCL5/RANTES. To be noted: chronic or acute DOX regimen vs saline; cited from earlier work.
The nature of series [5]: Survival of doxorubicin treated mice over 90 days. In kind it is in vivo. The source says: Survival was documented over the first 90 days after the beginning of treatment.
A further series deals with CCR5, CCL3, CCL5. The arrangement: species or system human. The protocol:
FIGS. 4a through 4f show myocardial biopsies from patients with either doxorubicin-induced cardiomyopathy or donor control heart. […] Samples were obtained from the Sydney heart bank. Biopsies were obtained at the time of transplant for the doxorubicin affected hearts. […] Heart biopsies were fixed in paraformaldehyde overnight prior to being embedded in paraffin blocks. Blocks were sectioned at […]. After deparaffinization and rehydration, antigen retrieval was performed in Tris buffer (pH 9) on the resulting sections. After blocking, sections were incubated with an antibody against CCR5, CCL3, or CCL5. Anti-CCR5 antibody binding was visualized using an HRP-conjugated second antibody and NOVA red substrate. Haematoxylin was used for nuclear visualization.

The test system of the next series is miRNAs targeting CCR5. As to the kind of experiment: miRNA expression profiles of hearts after acute doxorubicin regimen (Illumina miRNA arrays). In kind it is in vivo, rats. The note with it: acute doxorubicin 1x 20 mg/kg IP, n=6, vs saline. The source says:
In silico analysis using the miRdb database (www.mirdb.org) identified a number of miRNAs that could potentially regulate translation of CCR5 in rats (see X-axis for identification of individual miRNAs). […] Data rare represented as fold change to saline treated rats and shown as mean+/−SEM, * p<0.01.

Series [6] relates to BCa cells (SUM-159, FC-IBC-02, MDA-MB-231). The series is described as follows: CCR5 expression in BCa cells grown in doxorubicin, flow cytometry. It is filed as cell-based. To be noted: 10-40 nmol/L doxorubicin for up to 80 days vs untreated.
Procedure: BCa cells were grown in vitro under standard conditions for control (“solid bar”) or DOX treatment (“non-solid bar”) for up to 80 days. SUM-159 cells were grown in 10 nmol/L doxorubicin for 1 month, then 20 nmol/L doxorubicin for 1 month, and then 40 nmol/L doxorubicin for 3 weeks, prior to analysis. FC-IBC-02 cells were grown in 40 nmol/L doxorubicin for 1 month prior to analysis. MDA-MB-231 cells were grown in 20 nmol/L doxorubicin for 1 month then 40 nmol/L doxorubicin for 3 weeks prior to analysis. At the conclusion of the 80 days, surviving cells were harvested and pelleted by centrifugation. Cells were suspended in PBS containing normal mouse IgG and rat anti-mouse Fcg III/II receptor antibody to block nonspecific binding. Cells were exposed allophycocyanin (APC)-labeled CCR5 antibody for 1 hour at 4° C. After washing, analysis of CCR5 expression on cell was conducted on FACSCalibur flow cytometer (BD Biosciences). The data was analyzed with FlowJo software (Tree Star, Inc.). […] Data are % cells expressing CCR5 (mean of n=3 determinations).
A short description of series [7]: Chronic DOX model, cardiac function by echocardiography. In kind it is in vivo. To be noted: female mice, DOX 8×3 mg/kg over 2 weeks; 6 and 8 weeks after first injections; vs saline. As to the method:
Female mice (n=10) were treated with a chronic regimen of DOX (8×3 mg/kg over 2 weeks) and cardiac function assessed by echocardiography at 6 and 8 weeks after the first injections. Echocardiographic imaging was employed using the Vevo 2100 preclinical high-frequency ultrasound system (Visualsonics, Toronto, Canada). M-mode analysis of the resulting images provided indices of cardiac systolic and diastolic function. For FIG. 5a, the ejection fraction is the percentage of the left ventricular volume expelled with each cardiac contraction. For FIG. 5b, the ESD is the […]. For FIG. 5c, the ESV is the end systolic volume or the volume of the heart at the end of contraction (systole). For FIG. 5d, the PWs is the posterior wall thickness at end of systole or the thickness of the myocardium at maximal ventricular contraction. All data are compared to the saline treated group and represent mean+/−SEM, p<0.01.

Series [8] concerns cardiac progenitor iPSCs. As to the kind of experiment: DOX killing and CCR5 expression in cardiac progenitor iPSCs, propidium iodide / flow cytometry. In kind it is cell-based. The protocol: Some cells were suspended in PBS containing normal mouse IgG and rat anti-mouse Fcg III/II receptor antibody. Cells were exposed allophycocyanin (APC)-labeled CCR5 antibody for 1 hour at 4° C. After washing, analysis of CCR5 expression on cell was conducted on FACSCalibur flow cytometer (BD Biosciences). The data was analyzed with FlowJo software (Tree Star, Inc.). […] As such, CCR5+ cardiac progenitor cells are more prone to DOX induced cell death from than their CCR5− counterparts.
(In general: A flow cytometer gives signals particle by particle.)

The subject of the next series is CCR5. As to the kind of experiment: CCR5 immunostaining of myocardium after chronic regimen of DOX. In kind it is in vivo, mice. The note with it: DOX 8×3 mg/kg IP, excised after 8 weeks; vs saline.
Series [9] concerns CCR5 ligands CCL3, CCL5, CCL4. To be noted: doxorubicin treated patients (n=7) vs donor controls (n=9); cited from earlier work.
The next series has as its system MDA-MB-231 BCa cells. To be noted: Veliparib plus maraviroc vs vehicle, 72 hours, n=3.
The nature of series [10]: Doxorubicin induced cardiac dysfunction, echocardiography 8 weeks after final dose. It is filed as in vivo, mice. The note with it: doxorubicin 8×3 mg/kg over 2 weeks with maraviroc 16 mg/kg twice daily gavage vs vehicle; n=15 per group. The source says:
A representative example of the echocardiogram is shown. […] Indices include Left Ventricular End Systolic Dimension (LVESD) and Volume (LVESV), which are the diameter and volume of the left ventricle at the end of systole respectively, ejection fraction (EF) which is the percentage of the left ventricular volume expelled with each cardiac contraction (%), and fractional shortening (FS) which is the proportion of diastolic dimension lost in systole (%).

A further series has as its system SUM-159 cells. The series is described as follows: BCa lung metastasis after intracardiac injection of SUM-159 Luc2-eGFP cells, bioluminescence imaging. In kind it is in vivo, NOD/SCID mice. The note with it: Maraviroc 8 mg/kg every 12 hr oral gavage vs vehicle; n=6. The protocol: SUM-159 cells expressing Luc2-eGFP were introduced by intracardiac injection into 8-week old female NOD/SCID mice at 2×10^5 cells/mouse). […] Bioluminescence imaging was performed after intraperitoneal (i.p.) injection with 200 μL of D-luciferin at 30 mg/ml.

For series [11], the system named is cardiac progenitor iPSCs. The series is described as follows: Cell death of cardiac precursor iPSCs with saline or DOX and maraviroc, propidium iodide. It is filed as cell-based. The note with it: 1 μM DOX plus maraviroc (0-100 m), 24 hours, n=3. The source says: (mean+/−SD, n=3). […] Data represents mean+/−SD (n=3).
The mark [12] stands for this setting: anthracycline cardiotoxicity myocardium (n=2) vs normal donor heart (n=2).

Counter-ions that a name gives are not always drawn.

Procedure for MDA-MB-231 BCa cells: After 24 hours, cells were harvested and pelleted by centrifugation. For cell death, cells were incubated with RNase A and propidium iodide to highlight DNA content and nuclear morphology. Cell death was identified by counting cells with nuclei that were smaller and with less DNA content compared to normal diploid cells. […] (mean+/−SD, n=3). […] MDA-MB-231 BCa cells were plated onto 96-well plates, allowed to adhere overnight, then treated with drug for 72 hours. Cells were incubated with DNA damaging agent (Veliparib) and either vehicle or maraviroc. A measurement of cell number was made at both the time of treatment (time 0) and after drug treatment (time 72) using CTG reagent (Promega, Madison, Wis.) to allow for calculation of percent growth inhibition and the dose required to inhibit growth rate by 50% (GR50). […] Data represents mean+/−SD (n=3).

In the case of `COc1ccccc1OCC(O)CN1CCN(CC(=O)Nc2c(C)cccc2C)CC1` (centres unmarked) [Ranolazine dihydrochloride], the “survival of iPSC-CM” value in the series with iPSC-CM was “improved survival”. Moreover, in [1] (pretreated with ranolazine dihydrochloride 50 μM, then DOX 2 μM, n=3), the “DOX-induced cardiac toxicity (levels of apoptosis)” value is listed as “reduces DOX-induced cardiac toxicity”. Further, the “survival of BCa cells” value in [2] is on record as “reduced survival”.

Regarding `COc1ccccc1OCC(O)CN1CCN(CC(=O)Nc2c(C)cccc2C)CC1` (centres unmarked) [Ranolazine], in [3], the “breast cancer cell killing (cell proliferation)” value is on record as “enhance breast cancer cell killing in a dose dependent manner”.

On to `COc1cccc2c1C(=O)c1c(O)c3c(c(O)c1C2=O)C[C@@](O)(C(=O)CO)C[C@@H]3O[C@H]1C[C@H](N)[C@H](O)[C@H](C)O1` [doxorubicin], for which, in [4], the “CCL3 mRNA expression in the heart” value is listed as “increased mRNA expression” and the “CCL5 mRNA expression in the heart” value is given as “increased mRNA expression”. Further, the “survival over first 90 days” value in series [5] (doxorubicin 8x 3 mg/kg over 2 weeks with vehicle control) was 7/15. For the same compound, the “Average ejection fraction (EF)” value in the series with CCR5, CCL3, CCL5 was 25-35%. Also, in the series on CCR5, CCL3, CCL5 (setting [12]), the “CCL3 expression in myocardium” value is reported as “increased”, the “CCL5 expression in myocardium” value is recorded as “increased” and the “CCR5 expression in myocardium” value is “increased”. In addition, the “miRNAs targeting CCR5 with decreased expression in the myocardium” value in the series on miRNAs targeting CCR5 is given as 8/11. Further, the “proportion of DOX-induced apoptotic cell death” value in [1] (DOX 10 μM, no pretreatment) was found to be 17%. In [6], the “CCR5 expression (% cells expressing CCR5)” value is on record as “significantly increased”. The “cardiac function (ejection fraction, ESD, ESV, PWs)” value in series [7] is “induction of stable mild heart failure”. Besides, the cell death result in the series on cardiac progenitor iPSCs [8] (DOX 0-10 m, 24 hours, n=5) is given as “promotes cell death in a dose dependent manner”. For the same compound, the CCR5 expression result with cardiac progenitor iPSCs [8] (DOX 24 hours, n=3) is recorded as “increases CCR5 expression”. Also, the “CCR5 expression in the myocardium” value in the series with CCR5 was “increased”. In [9], the “CCL3 mRNA expression in the heart” value is on record as “increased mRNA expression” and the “CCL5 mRNA expression in the heart” value is “increased mRNA expression”.

For maraviroc, the “survival of iPSC-CM” value with iPSC-CM is “improved survival”. Also, the “survival over first 90 days” value in series [5] (doxorubicin 8x 3 mg/kg over 2 weeks with maraviroc 16 mg/kg twice daily gavage) is 10/15. Further, the “enhanced survival over the vehicle in DOX treated mice” value in [5] (doxorubicin with maraviroc vs doxorubicin with vehicle) is 2.77 fold. The “proportion of DOX-induced apoptotic cell death” value in series [1] (pretreated with maraviroc 100 μM, then DOX 10 μM) was found to be 3%. In addition, the “BCa cell killing in combination with veliparib” value with MDA-MB-231 BCa cells was “synergistically promotes BCa cell killing”. The “survival of BCa cells” value in series [2] is “reduced survival”. Further, the “doxorubicin induced cardiac dysfunction (LVESD, LVESV, EF, FS)” value in [10] is recorded as “prevents doxorubicin induced cardiac dysfunction”. The BCa lung metastasis entry in the series with SUM-159 cells is given as “reduced”. The “DOX induced cell death” value in the series on cardiac progenitor iPSCs [11] was “significantly, and dose dependently, rescues DOX induced cell death”.

The values are drawn from patent publication US20230035491A1, “METHODS, KITS AND COMPOSITIONS FOR REDUCING CARDIOTOXICITY ASSOCIATED WITH CANCER THERAPIES” (Baruch S. Blumberg Institute, priority 2019, published 2023).
